Columns and labels:
[1] = Hygroscopicity research by dynamic vapor sorption (DVS); type: physicochemical; conditions: 25° C. and 80% RH
Procedure: Dynamic Vapor Sorption (DVS) Method
Instrument model: SMS DVS intrinsic dynamic vapor sorption instrument
A dynamic water sorption experiment consists of adsorption and desorption. It is generally believed that at a set relative humidity, the adsorption or desorption of the sample to moisture at this relative humidity is considered to have reached equilibrium when the sample weight reaches dm/dt≤0.01%.
Sample testing temperature: T=25° C.
Equilibrium time: dm/dt: 0.01%/min
Relative humidity variation range: 0%-95%-0%; RH (%)
Test humidity change at each step: 5%
The evaluation of hygroscopicity is classified as follows:
SMS DVS intrinsic dynamic vapor sorption instrument
10 to 15 mg of the crystal form B of the compound of formula (II) was put in a DVS sample tray for testing.

[2] = Solid stability research (crystal form stability on storage); type: physicochemical; conditions: 40° C./75% RH 6 months; 25° C./60% RH 12 months
Procedure: The crystal form B of the compound of formula (II) was placed at 40° C./75% RH (sealed with a double-layer LDPE bag and further heat-sealed with an aluminum foil bag) for 6 months, and placed at 25° C./60% RH (sealed with a double-layer LDPE bag and further heat-sealed with an aluminum foil bag) for 12 months, respectively. The crystal form was tested individually at each sampling point to determine the crystal form stability of the sample.

## Cc1ccc(C(=O)OCn2cc(C)c3c(S(=O)(=O)N4CC[C@H](N)C4)cccc3c2=O)c(C)c1
[1]
  Classification of hygroscopicity: slightly hygroscopic
[1]; DVS
  ΔW, hygroscopic weight gain: 0.736%
[2]
  Stability in accelerated and long-term tests: good stability
